Experimental data: patent US11944623B2, “Modulators of Kv3 channels to treat pain” (Autifony Therapeutics Limited, priority 2015, dated 2024)

Legend:
[1] = target: T1, human BK (hKCa1.1/β1) potassium channel (Homo sapiens, UniProt Q12791); assay: BK QPatch HT assay; assay type: cell-based; conditions: 10 µM concentration (N=3)
T1 construct: expressed in transfected cells; host or cells: CHO cell line
Protocol: The effects of compounds on cloned human BK (hKCa1.1/β1) potassium channel (encoded by the human KCNMA1 and KCNMB1 genes) were examined in a CHO cell line using a QPatch HT® (Sophion Bioscience A/S, Denmark) assay. Onset and steady-state inhibition of hBK currents were measured using a voltage pulse pattern with a depolarizing test pulse (+100 mV amplitude, 200 ms duration) at 10 s intervals from a holding potential of −80 mV. The peak amplitude of the delayed outward current was measured for each test pulse. The compounds were evaluated at 10 μM in three cells for each compound, after a 3 minute compound application. The steady state inhibition produced by each compound was calculated.

[2] = tested on: rat model of neuropathic pain; assay: Neuropathic pain model (partial ligation of the sciatic nerve): paw withdrawal to mechanical pressure and cold (10° C.), general observations; assay type: in vivo; conditions: for changes in contralateral paw withdrawals and latencies: just attained significance at 3 hours on mechanical
Protocol: (§1) The efficacy of Compounds 1, 2, 3 and 4 was investigated using rat models of neuropathic and/or persistent inflammatory pain.
(§2) Subjects comprised male, Wistar Hanover rats, 6 animals per group (225±2 g for Compound 1 studies and Compound 2 studies; 214±1 g for Compound 3 studies; 236±1 g for Compound 4 studies).
(§3) Vehicle (12% Captisol®; 0.5% w/v HPMC and 0.1% w/v Tween-80; 5 ml/kg via the intraperitoneal route) was prepared using autoclaved deionized water not more than one week prior to use.
(§4) The details of the studies performed are outlined in Table 1.
(§5) The control for the neuropathic pain model was lamotrigine, administered at 30 mg/kg via oral delivery. The control for the inflammatory pain model was diclofenac, administered at 30 mg/kg via oral delivery. Statistical analysis was performed using one-way ANOVA, and comparisons were performed with time-matched vehicle group using Tukey's HSD test wherein * p<0.05, ** p<0.01, *** p<0.001.
(§6) Treatment groups were randomised and blinded. Groups of 6 rats were used.
Neuropathic pain was induced by partial ligation of the sciatic nerve. Briefly, the rats were anaesthetised (isoflurane/O2 inhalation), the left sciatic nerve exposed at mid-thigh level through a small incision and ⅓ to ½ of the nerve thickness tightly ligated within a 7.0 silk suture. The wound was closed with surgical glue. Animals were allowed to recover and tested 12-15 days following surgery.
Withdrawal thresholds or latencies were measured on both the ipsilateral (ligated) and contralateral (non-ligated) paws, prior to (predose) and then up to 24 h following drug or vehicle administration.
Pre-dose behavioural measurements were obtained by measuring paw withdrawals 14 days following nerve ligation; before the initiation of drug treatment. Following treatment, further readings were taken at 1, 3, 6 and 24 hour after administration.
(§7) Mechanical hyperalgesia was examined in a model of neuropathic pain by measuring paw withdrawal thresholds (PWT) to increasing mechanical force applied to the dorsal surface of the rat paw using an Analgesymeter (Ugo-Basile, Milan) equipped with a wedge-shaped probe (area 1.75 mm^2). Cut-off was set at 250 g and the end-point was taken as withdrawal of the hind paw. Both ipsilateral and contralateral paw withdrawal readings were taken.
(§8) Cold sensitivity was assessed using a commercially available cold-plate (Ugo Basile, Milan). The cold plate was allowed to stabilize for 5 minutes at the set temperature prior to testing. Paw withdrawal latencies (PWL) were determined with the cold-plate set at 10° C. The animals were lightly restrained and each hind paw in turn placed onto the surface of the cold-plate. The end point was taken as the withdrawal of the paw and recorded as the withdrawal latency for the ipsilateral and the contralateral paw. A maximum cut-off of 30 seconds was used for each paw.
(§9) In addition to behavioural pain readings, each rat was observed throughout the study for changes in general behaviour.
(§10) Data were expressed as withdrawal threshold (g) or withdrawal latencies (s) and percentage reversals calculated according to the following formula: […]
(§11) Statistical analysis was carried out on withdrawal threshold readings using ANOVA with repeated measures followed by Tukey's HSD test. The level for statistical significance was set as p<0.05.

[3] = tested on: rat model of persistent inflammatory pain; assay: Persistent inflammatory pain model (intraplantar FCA): paw withdrawal to mechanical pressure and cold (10° C.), general observations; assay type: in vivo; conditions: for rats with noticeable flaccidity: 1-6h post-dose; for behavioural changes in the rats (general observations): rat, in vivo; for rats more alert and more vocal than fellow cage-mates: 1-6 h post-dose
Protocol: as §1, §2, §3, §4, §5, §6
Mechanical hyperalgesia was examined in a model of persistent inflammatory pain. The hyperalgesia was induced by an intraplantar injection (25 μl) of Freund's Complete Adjuvant (FCA) into the left hind paw.
To assess the effect of the test compound, paw withdrawal thresholds or latencies were measured on both the ipsilateral (FCA-injected) and contralateral (non-injected) paws, prior to (naïve) and 24 hours following FCA injection (predose), and then at 1, 3, 6 and 24 hours after drug or vehicle administration.
as §7, §8, §9, §10, §11

[4] = Study 1 of each compound (Table 1), 60 mg/kg i.p., 3 hours post-dose
[5] = Study 1 of each compound, 30 mg/kg i.p., 3 hours post-dose
[6] = Study 1 of each compound, 60 mg/kg i.p.
[7] = Study 2, 10 mg/kg i.p., 3 hours post-dose
[8] = Study 2, 30 mg/kg i.p., 3 hours post-dose
[9] = Study 2, 60 mg/kg i.p., 3 hours post-dose
[10] = 10 mg/kg i.p., 3 hours post-dose
[11] = 30 mg/kg i.p., 3 hours post-dose
[12] = 60 mg/kg i.p., 1 hour post-dose
[13] = Study 1, 30 mg/kg i.p., 1 hour post-dose
[14] = Study 1, 60 mg/kg i.p., 1 hour post-dose
[15] = 60 mg/kg i.p., 3 hours post-dose
[16] = 30 mg/kg i.p., time not stated (peak reversal at 1-3 h post-dose)

T1 sequence (Q12791 whole entry): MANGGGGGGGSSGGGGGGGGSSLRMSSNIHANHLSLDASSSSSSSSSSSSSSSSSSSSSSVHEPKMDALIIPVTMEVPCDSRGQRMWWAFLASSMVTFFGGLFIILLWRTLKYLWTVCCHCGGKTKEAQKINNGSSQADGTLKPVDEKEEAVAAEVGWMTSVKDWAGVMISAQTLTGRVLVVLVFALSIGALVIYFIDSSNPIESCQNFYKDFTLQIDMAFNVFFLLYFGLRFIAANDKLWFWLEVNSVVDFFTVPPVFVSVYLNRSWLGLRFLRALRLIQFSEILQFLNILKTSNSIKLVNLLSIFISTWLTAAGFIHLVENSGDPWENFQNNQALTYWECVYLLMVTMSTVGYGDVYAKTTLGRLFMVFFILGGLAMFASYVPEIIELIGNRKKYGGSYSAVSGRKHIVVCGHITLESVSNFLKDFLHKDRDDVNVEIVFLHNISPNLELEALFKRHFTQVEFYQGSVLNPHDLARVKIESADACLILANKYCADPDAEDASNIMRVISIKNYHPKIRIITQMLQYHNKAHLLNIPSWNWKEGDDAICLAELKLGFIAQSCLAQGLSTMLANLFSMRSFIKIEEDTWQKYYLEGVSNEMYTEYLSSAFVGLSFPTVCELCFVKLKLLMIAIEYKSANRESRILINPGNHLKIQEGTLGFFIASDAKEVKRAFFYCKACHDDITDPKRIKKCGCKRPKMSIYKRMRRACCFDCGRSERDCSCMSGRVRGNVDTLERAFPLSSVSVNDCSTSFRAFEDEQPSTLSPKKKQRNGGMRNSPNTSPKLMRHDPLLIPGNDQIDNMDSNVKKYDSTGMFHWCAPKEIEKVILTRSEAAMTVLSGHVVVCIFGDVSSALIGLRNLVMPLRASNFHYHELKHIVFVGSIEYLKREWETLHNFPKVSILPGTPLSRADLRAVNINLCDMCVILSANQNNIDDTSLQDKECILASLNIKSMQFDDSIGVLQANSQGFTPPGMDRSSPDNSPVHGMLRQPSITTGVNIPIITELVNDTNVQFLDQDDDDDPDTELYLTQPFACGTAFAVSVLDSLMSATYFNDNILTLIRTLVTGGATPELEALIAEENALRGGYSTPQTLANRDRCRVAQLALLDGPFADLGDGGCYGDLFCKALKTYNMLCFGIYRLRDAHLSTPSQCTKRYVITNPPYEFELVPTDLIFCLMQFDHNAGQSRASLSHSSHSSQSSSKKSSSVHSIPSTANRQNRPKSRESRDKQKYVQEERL
T1 sequence (Q16558 whole entry partner): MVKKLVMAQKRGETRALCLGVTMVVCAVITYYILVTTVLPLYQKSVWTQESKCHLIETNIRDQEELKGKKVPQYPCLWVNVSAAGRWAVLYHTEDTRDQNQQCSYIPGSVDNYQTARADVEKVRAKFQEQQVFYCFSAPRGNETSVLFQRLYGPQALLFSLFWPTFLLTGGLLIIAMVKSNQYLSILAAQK

| effect on BK channel currents [1] | changes in contralateral paw withdrawals and latencies ([2]; Study 2) | behavioural changes in the rats (general observations) ([2]; Study 1 of each compound) | changes in contralateral paw withdrawals/latencies ([3]; all doses) | behavioural changes in the rats (general observations) [3] | Compound | reversal of cold sensitivity [2, 4] [%] | reversal of mechanical sensitivity [2, 4] [%] | reversal of cold sensitivity [2, 5] [%] | efficacy at 6 hours post-dose [2, 6] | reversal of cold sensitivity [2, 7] [%] | reversal of mechanical sensitivity [2, 7] [%] | reversal of cold sensitivity [2, 8] [%] | reversal of mechanical sensitivity [2, 8] [%] | reversal of cold sensitivity [2, 9] [%] | reversal of mechanical sensitivity [2, 9] [%] | reversal of mechanical sensitivity [3, 10] [%] | reversal of cold sensitivity [3, 11] [%] | reversal of cold sensitivity [3, 12] [%] | reversal of cold sensitivity [3, 15] [%] | reversal of mechanical sensitivity [3, 15] [%] | other results |
| --- | --- | --- | --- | --- | --- | --- | --- | --- | --- | --- | --- | --- | --- | --- | --- | --- | --- | --- | --- | --- | --- |
| No significant effect | small changes | – | – | – | Cc1ccc(Oc2ncc(N3C(=O)NC(C)(C)C3=O)cn2)c2c1OCC21CC1 [Compound 1, 5,5-dimethyl-3-[2-(7-methylspiro[2H-benzofuran-3,1′-cyclopropane]-4-yl)oxypyrimidin-5-yl]imidazolidine-2,4-dione] | 125 | 68 | 52 | still efficacious | 39 | 31 | 68 | 73 | 76 | 81 | 64 | 65 | 92 | – | – | statistical activity of the lower dose ([2]; Study 1, 30 mg/kg i.p.): only statistically active against mechanical hyperalgesia; reversal of mechanical sensitivity ([2]; Study 1, 30 mg/kg i.p., 3 hours post-dose): 51%; flaccidity (general observation) ([2]; Study 1, 1 and 3 hour post-dose, both doses): slightly flaccid; rats with mild flaccidity ([2]; Study 2, 30 mg/kg i.p.): 1/6; rats with mild flaccidity ([2]; Study 2, 60 mg/kg i.p.): 2/6; reversal of cold sensitivity [3, 10]: 45%; rats with noticeable flaccidity ([3]; 30 mg/kg i.p.): 2/6; reversal of mechanical sensitivity ([3]; 30 mg/kg i.p., 1 hour post-dose): 74%; animals showing the contralateral paw effect ([3]; 60 mg/kg i.p.): 3/6; changes in contralateral paw withdrawals/latencies ([3]; 60 mg/kg i.p.): Pronounced increases; rats with noticeable flaccidity ([3]; 60 mg/kg i.p.): 4/6; reversal of mechanical sensitivity [3, 12]: 92%; reversal of cold sensitivity ([3]; 60 mg/kg i.p., 6h post-dose): 45%; reversal of mechanical sensitivity ([3]; 60 mg/kg i.p., 6h post-dose): 45% |
| No significant effect | small changes | no apparent behavioural changes | No changes | no apparent behavioural changes | CC[C@@]1(C)NC(=O)N(c2cnc(Oc3ccc(C)c(OC(F)(F)F)c3)nc2)C1=O [Compound 2, (5R)-5-ethyl-5-methyl-3-[2-({4-methyl-3-[(trifluoromethyl)oxy]phenyl}oxy)-5-pyrimidinyl]-2,4-imidazolidinedione] | – | – | 55 | – | 35 | 31 | 70 | 72 | 95 | 81 | 46 | 58 | 96 | 81 | 67 | reversal of cold sensitivity [2, 13]: 42%; reversal of mechanical sensitivity [2, 13]: 53%; reversal of cold sensitivity [2, 14]: 71%; reversal of mechanical sensitivity [2, 14]: 47%; duration of efficacy ([2]; Study 1, both doses (30 and 60 mg/kg i.p.)): efficacious at 3 hours by not by 6 hours post-dose; behavioural changes in the rats (general observations) ([2]; Study 2): no apparent behavioural changes |
| No significant effect | – | no behavioural changes noted | no significant changes | – | Cc1ccc(Oc2ccc(-n3c(C)n[nH]c3=O)cn2)c2c1OCC21CC1 [Compound 3, 5-methyl-4-{6-[(7-methylspiro[1-benzofuran-3,1′-cyclopropan]-4-yl)oxy]pyridin-3-yl}-2,4-dihydro-3H-1,2,4-triazol-3-one] | 52 | 46 | – | activity was still evident | – | – | – | – | – | – | – | – | – | 51 | 67 | statistical significance against mechanical and cold hyperalgesia ([2]; Compound 3 neuropathic study, 60 mg/kg i.p.): attained statistical significance; changes in contralateral paw withdrawals/latencies ([2]; Compound 3 neuropathic study, 30 and 60 mg/kg i.p.): no significant changes; rats more alert and more vocal than fellow cage-mates ([3]; 30 mg/kg group): 4/6; rats more alert and more vocal than fellow cage-mates ([3]; 60 mg/kg group): 1/6; doses producing a reversal of mechanical or cold sensitivity ([3]; 10, 30 and 60 mg/kg i.p. tested): Only the top dose; reversal at 1 hour post-dose ([3]; 1 hour post-dose): little reversal evident; activity at 6 hours post-dose [3]: activity still evident |
| – | – | – | no significant changes | no behavioural changes noted | CC[C@H]1NC(=O)N(c2ccc(Oc3ccc(C)c4c3C3(CC3)CO4)nc2)C1=O [Compound 4, (5R)-5-ethyl-3-[6-(7-methylspiro[2H-benzofuran-3,1′-cyclopropane]-4-yl)oxy-3-pyridyl]imidazolidine-2,4-dione] | – | – | – | – | – | – | – | – | – | – | – | – | – | – | – | reversal of cold sensitivity [3, 16]: 55%; reversal of mechanical sensitivity [3, 16]: 50%; activity at 6 hours post-dose [3]: significant activity still evident |
